Inhibition data for 25 molecules are collected here from patent US20240300942A1, “SMALL MOLECULES FOR TREATEMENT OF CANCER” (VRise Therapeutics Inc., priority 2021, published 2024).

SMILES strings stand for the structures.

The subject of one assay is NCI-H358 cell line. Nature of the assay: In vitro cell proliferation assay (CCK-8) in NCI-H358 cell line. Type of assay: cell-based. Conditions: Homo sapiens, 72 hours; for inhibition at 10 µM: TC2: Test Concentration of 10 uM. How it is done: (§1) Growth inhibition assays is to be carried out using 10% FBS supplemented media. Cells are to be seeded at a desired concentration of 1,500-6,000 cells/well in a 96-well plate. Test compounds at a concentration range from 1 to 30 uM will be added after 24 hours. Growth will be assessed using the CCK-8 kit for measuring reduction at 0 h (prior to the addition of the test compound) and 72 hours after the addition of test compound. Absorbance read on a BIO-RAD iMark Microplate or any equivalent microplate reader at a wavelength of 450 nm. Data was analysed and percent inhibition due to the test compound compared to the control is calculated accordingly.

For another assay, the system named is MIAPACA-2 cell line. As to the kind of experiment: In vitro cell proliferation assay (CCK-8) in MIAPACA-2 cell line. Conditions: Homo sapiens, MIA PaCa-2, 72 hours; for inhibition at 10 µM: TC2: Test Concentration of 10 uM; for inhibition at 3 µM: TC1: Test Concentration of 3 uM. In kind it is cell-based. How it is done: as §1

A word on the inhibition: it is how much of the control response was suppressed.

In the case of `C=CC(=O)N1CCN(c2nc(OCC3CCCN3C)c(C#N)c3c2CCN(Cc2ccccc2)C3)CC1` (stereo not drawn) [Ex 45, 1-(4-acryloylpiperazin-1-yl)-6-benzyl-3-((1-methylpyrrolidin-2-yl)methoxy)-5,6,7,8-tetrahydro-2,6-naphthyridine-4-carbonitrile], the inhibition at 10 µM in the assay on NCI-H358 cell line is at most 25%. Consider `C=CC(=O)N1CCN(c2nc(N3CCS(=O)(=O)CC3)c(C#N)c3c2CCN(c2cccc4ccccc24)C3)CC1` [Ex 1, 1-(4-acryloylpiperazin-1-yl)-3-(1,1-dioxidothiomorpholino)-6-(naphthalen-1-yl)-5,6,7,8-tetrahydro-2,6-naphthyridine-4-carbonitrile], for which, in the assay with MIAPACA-2 cell line, the inhibition at 10 µM lay in the range of 75 to 100%. In turn, `C=CC(=O)N1CCN(c2nc(-c3ccnc(F)c3)c(C#N)c3c2CCN(Cc2ccccc2)C3)CC1` [Ex 43, 1-(4-acryloylpiperazin-1-yl)-6-benzyl-3-(2-fluoropyridin-4-yl)-5,6,7,8-tetrahydro-2,6-naphthyridine-4-carbonitrile] came in with an inhibition at 10 µM in the assay on NCI-H358 cell line of 25 to 50%. Same read-out and setting: the value for `C=CC(=O)N1CCN(c2nc(N3CCN(C(C)=O)CC3)c(C#N)c3c2CCN(c2cccc4ccccc24)C3)CC1` [Ex 51, 3-(4-acetylpiperazin-1-yl)-1-(4-acryloylpiperazin-1-yl)-6-(naphthalen-1-yl)-5,6,7,8-tetrahydro-2,6-naphthyridine-4-carbonitrile] was 50 to 75%; that for `C=CC(=O)N1CCN(c2nc(N3CCCCC3)c(C#N)c3c2CCN(Cc2ccccc2)C3)CC1` [Ex 42, 1-(4-acryloylpiperazin-1-yl)-6-benzyl-3-(piperidin-1-yl)-5,6,7,8-tetrahydro-2,6-naphthyridine-4-carbonitrile] was 25 to 50%.

With `C=C(F)C(=O)N1CCN(c2nc(OC[C@@H]3CCCN3C)c(C#N)c3c2CCN(c2cccc4cccc(Cl)c24)C3)CC1CC#N` (stereo partly drawn) [Ex 26, 6-(8-chloronaphthalen-1-yl)-1-(3-(cyanomethyl)-4-(2-fluoroacryloyl)piperazin-1-yl)-3-(((S)-1-methylpyrrolidin-2-yl)methoxy)-5,6,7,8-tetrahydro-2,6-naphthyridine-4-carbonitrile], the inhibition at 3 µM in the assay on NCI-H358 cell line (TC1: Test Concentration of 3 uM) fell in the range of 25 to 50%. For the same molecule, the inhibition at 10 µM with NCI-H358 cell line lay within 75 to 100%. On to `C=CC(=O)N1CCN(c2nc(N3CCN(C(=O)CC)CC3)c3c(c2C#N)CN(c2cccc4ccccc24)CC3)CC1` [Ex 49, 3-(4-acryloylpiperazin-1-yl)-6-(naphthalen-1-yl)-1-(4-propionylpiperazin-1-yl)-5,6,7,8-tetrahydro-2,6-naphthyridine-4-carbonitrile], for which, in the assay with NCI-H358 cell line, the inhibition at 10 µM lay within 75 to 100%.

As for `C=CC(=O)N1CCN(c2nc(OC[C@@H]3CCCN3C)c(C#N)c3c2CCN(c2cc(O)cc4ccccc24)C3)CC1` [Ex 9, (S)-1-(4-acryloylpiperazin-1-yl)-6-(3-hydroxynaphthalen-1-yl)-3-((1-methylpyrrolidin-2-yl)methoxy)-5,6,7,8-tetrahydro-2,6-naphthyridine-4-carbonitrile], in the assay with MIAPACA-2 cell line, the inhibition at 3 µM is 75 to 100% and the inhibition at 10 µM was in the range of 75 to 100%.

The molecule `C=CC(=O)N1CCN(c2nc(N3CCN(C)CC3)c(C#N)c3c2CCN(C(=O)c2cccc4ccccc24)C3)CC1CC#N` (stereo not drawn) [Ex 37, 6-(1-naphthoyl)-1-(4-acryloyl-3-(cyanomethyl)piperazin-1-yl)-3-(4-methylpiperazin-1-yl)-5,6,7,8-tetrahydro-2,6-naphthyridine-4-carbonitrile] registered an inhibition at 10 µM in the assay on NCI-H358 cell line of 75 to 100%. As to `C=CC(=O)N1CCN(c2nc(O)c(C#N)c3c2CCN(Cc2ccccc2)C3)CC1` [Ex 40, 1-(4-acryloylpiperazin-1-yl)-6-benzyl-3-hydroxy-5,6,7,8-tetrahydro-2,6-naphthyridine-4-carbonitrile], the inhibition at 10 µM with NCI-H358 cell line is at most 25%. The same measure, in the same setting: the value for `C=CC(=O)N1CCN(c2nc(N3CCN(C(=O)C=C)CC3)c3c(c2C#N)CN(Cc2ccccc2)CC3)CC1` [Ex 32, 1,3-bis(4-acryloylpiperazin-1-yl)-6-benzyl-5,6,7,8-tetrahydro-2,6-naphthyridine-4-carbonitrile] was 50 to 75%. Take `C=C(F)C(=O)N1CCN(c2nc(OC[C@@H]3CCCN3C)c(C#N)c3c2CCN(c2cccc4ccccc24)C3)CC1CC#N` (stereo partly drawn) [Ex 20, 1-(3-(cyanomethyl)-4-(2-fluoroacryloyl)piperazin-1-yl)-3-(((S)-1-methylpyrrolidin-2-yl)methoxy)-6-(naphthalen-1-yl)-5,6,7,8-tetrahydro-2,6-naphthyridine-4-carbonitrile]: in the assay with MIAPACA-2 cell line, the inhibition at 3 µM lay within 50 to 75% and the inhibition at 10 µM lay within 75 to 100%. Consider `C=CC(=O)N1CCN(c2nc(N3CCOCC3)c(C#N)c3c2CCN(c2cccc4ccccc24)C3)CC1` [Ex 50, 1-(4-acryloylpiperazin-1-yl)-3-morpholino-6-(naphthalen-1-yl)-5,6,7,8-tetrahydro-2,6-naphthyridine-4-carbonitrile], for which the inhibition at 10 µM in the assay with NCI-H358 cell line is 75 to 100%. As for `C=CC(=O)Oc1nc(N2CCN(C(=O)C=C)CC2)c2c(c1C#N)CN(Cc1ccccc1)CC2` [Ex 33, 1-(4-acryloylpiperazin-1-yl)-6-benzyl-4-cyano-5,6,7,8-tetrahydro-2,6-naphthyridin-3-yl acrylate], in the assay on NCI-H358 cell line, the inhibition at 10 µM was at most 25%. In the assay on MIAPACA-2 cell line, `C=CC(=O)N1CCN(c2nc(OC[C@@H]3CCCN3C)c(C#N)c3c2CCN(c2cc(O)cc4ccccc24)C3)CC1CC#N` (stereo partly drawn) [Ex 19, 1-(4-acryloyl-3-(cyanomethyl)piperazin-1-yl)-6-(3-hydroxynaphthalen-1-yl)-3-(((S)-1-methylpyrrolidin-2-yl)methoxy)-5,6,7,8-tetrahydro-2,6-naphthyridine-4-carbonitrile] gave an inhibition at 3 µM of 75 to 100% and an inhibition at 10 µM of 75 to 100%. For `C=CC(=O)N1CCN(c2nc(OC[C@@H]3CCCN3C)c(C#N)c3c2CCN(c2cncc4ccccc24)C3)CC1` [Ex 21, (S)-1-(4-acryloylpiperazin-1-yl)-6-(isoquinolin-4-yl)-3-((1-methylpyrrolidin-2-yl)methoxy)-5,6,7,8-tetrahydro-2,6-naphthyridine-4-carbonitrile], in the assay with MIAPACA-2 cell line, the inhibition at 3 µM fell in the range of 50 to 75% and the inhibition at 10 µM was 50 to 75%. In the assay with MIAPACA-2 cell line, `C=CC(=O)N1CCN(c2nc(OC[C@@H]3CCCN3C)c(C#N)c3c2CCN(c2cccc4cccc(Cl)c24)C3)CC1` [Ex 8, (S)-1-(4-acryloylpiperazin-1-yl)-6-(8-chloronaphthalen-1-yl)-3-((1-methylpyrrolidin-2-yl)methoxy)-5,6,7,8-tetrahydro-2,6-naphthyridine-4-carbonitrile] yielded an inhibition at 3 µM of 25 to 50% and an inhibition at 10 µM of 75 to 100%. In the case of `C=CS(=O)(=O)N1CCN(c2nc(OC[C@@H]3CCCN3C)c(C#N)c3c2CCN(c2cccc4cccc(Cl)c24)C3)CC1` [Ex 11, (S)-6-(8-chloronaphthalen-1-yl)-3-((1-methylpyrrolidin-2-yl)methoxy)-1-(4-(vinylsulfonyl)piperazin-1-yl)-5,6,7,8-tetrahydro-2,6-naphthyridine-4-carbonitrile], in the assay on MIAPACA-2 cell line, the inhibition at 3 µM lay within 75 to 100% and the inhibition at 10 µM lay within 75 to 100%.

In the assay on MIAPACA-2 cell line, `C=CC(=O)N1CCN(c2nc(N3CC(C)OC(C)C3)c(C#N)c3c2CCN(c2cccc4ccccc24)C3)C[C@H]1CC#N` (single isomer, unassigned) [Ex 15] displayed an inhibition at 3 µM of 75 to 100% and an inhibition at 10 µM of 75 to 100%. In the assay on MIAPACA-2 cell line, `C=CC(=O)N1CCN(c2nc(OC[C@@H]3CCCN3C)c(C#N)c3c2CCN(c2cccc4ccccc24)C3)C[C@H]1CC#N` [Ex 18, 1-((R)-4-acryloyl-3-(cyanomethyl)piperazin-1-yl)-3-(((S)-1-methylpyrrolidin-2-yl)methoxy)-6-(naphthalen-1-yl)-5,6,7,8-tetrahydro-2,6-naphthyridine-4-carbonitrile] yielded an inhibition at 3 µM of 75 to 100% and an inhibition at 10 µM of 75 to 100%. For `C=CC(=O)N1CCN(c2nc(N3CC(C)OC(C)C3)c(C#N)c3c2CCN(c2cccc4ccccc24)C3)C[C@@H]1CC#N` (single isomer, unassigned) [Ex 14], in the assay on MIAPACA-2 cell line, the inhibition at 3 µM was 75 to 100% and the inhibition at 10 µM was in the range of 75 to 100%.

In the assay on MIAPACA-2 cell line, `C=C(F)C(=O)N1CCN(c2nc(OC[C@@H]3CCCN3C)c(C#N)c3c2CCN(c2cccc4cccc(Cl)c24)C3)CC1C` (stereo partly drawn) [Ex 12, 6-(8-chloronaphthalen-1-yl)-1-(4-(2-fluoroacryloyl)-3-methylpiperazin-1-yl)-3-(((S)-1-methylpyrrolidin-2-yl)methoxy)-5,6,7,8-tetrahydro-2,6-naphthyridine-4-carbonitrile] displayed an inhibition at 3 µM of 50 to 75% and an inhibition at 10 µM of 75 to 100%. For `C=C(F)C(=O)N1CCN(c2nc(OC[C@@H]3CCCN3C)c(C#N)c3c2CCN(c2ncnc4ccccc24)C3)CC1` [Ex 10, (S)-1-(4-(2-fluoroacryloyl)piperazin-1-yl)-3-((1-methylpyrrolidin-2-yl)methoxy)-6-(quinazolin-4-yl)-5,6,7,8-tetrahydro-2,6-naphthyridine-4-carbonitrile] the same measures were 75 to 100% and 75 to 100%.

In the assay on MIAPACA-2 cell line, `C=CC(=O)N1CCN(c2nc(N3CC(C)OC(C)C3)c(C#N)c3c2CCN(c2cccc4ccccc24)C3)CC1CC#N` (racemic) [Ex 13, 1-(4-acryloyl-3-(cyanomethyl)piperazin-1-yl)-3-(2,6-dimethylmorpholino)-6-(naphthalen-1-yl)-5,6,7,8-tetrahydro-2,6-naphthyridine-4-carbonitrile] displayed an inhibition at 3 µM of 75 to 100% and an inhibition at 10 µM of 75 to 100%. In the assay with MIAPACA-2 cell line, `C=CC(=O)N1CCN(c2nc(OC[C@@H]3CCCN3C)c(C#N)c3c2CCN(c2cccc4ccccc24)C3)C[C@@H]1CC#N` [Ex 17, 1-((S)-4-acryloyl-3-(cyanomethyl)piperazin-1-yl)-3-(((S)-1-methylpyrrolidin-2-yl)methoxy)-6-(naphthalen-1-yl)-5,6,7,8-tetrahydro-2,6-naphthyridine-4-carbonitrile] registered an inhibition at 3 µM of 75 to 100% and an inhibition at 10 µM of 75 to 100%.
